What follows are compounds tested against T1, ZAP-70 (Homo sapiens, UniProt P43403) (assay: ZAP-70 kinobeads assay). Conditions: competition with immobilized aminopyrido-pyrimidine ligand 24 in cell lysate; ZAP-70 detected by dot blot.
T1 construct: endogenous in cells; host or cells: cell lysate
T1 sequence (P43403 1-619): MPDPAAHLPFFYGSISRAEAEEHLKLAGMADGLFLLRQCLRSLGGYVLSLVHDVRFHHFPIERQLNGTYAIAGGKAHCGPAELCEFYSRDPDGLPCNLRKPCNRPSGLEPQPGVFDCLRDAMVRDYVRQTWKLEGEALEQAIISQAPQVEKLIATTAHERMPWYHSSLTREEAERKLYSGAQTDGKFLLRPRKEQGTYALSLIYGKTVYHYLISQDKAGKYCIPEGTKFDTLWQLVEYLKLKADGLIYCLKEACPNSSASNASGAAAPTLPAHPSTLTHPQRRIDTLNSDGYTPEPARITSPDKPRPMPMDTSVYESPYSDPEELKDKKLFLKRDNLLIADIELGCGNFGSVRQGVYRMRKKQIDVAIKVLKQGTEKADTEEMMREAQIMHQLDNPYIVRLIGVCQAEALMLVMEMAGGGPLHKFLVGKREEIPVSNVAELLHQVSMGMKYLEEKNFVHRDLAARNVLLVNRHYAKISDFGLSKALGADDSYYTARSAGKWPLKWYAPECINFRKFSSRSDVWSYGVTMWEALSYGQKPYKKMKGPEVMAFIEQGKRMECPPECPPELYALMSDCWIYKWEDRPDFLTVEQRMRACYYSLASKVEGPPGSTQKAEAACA
Format: binding
Method in brief: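 Cell lysate aliquots incubated with test compounds at various concentrations plus affinity beads carrying immobilized aminopyrido-pyrimidine ligand 24. Bead-captured proteins eluted; ZAP-70 quantified by specific antibody dot blot with infrared detection.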
`CSc1cccc(Nc2ncc(F)c(Nc3ccccc3NS(C)(=O)=O)n2)c1` [Example 15, N-(2-(5-fluoro-2-(3-(methylthio)phenylamino)pyrimidin-4-ylamino)phenyl)methanesulfonamide] gave an IC50 of 1000 to 10000 nM. `CS(=O)(=O)Nc1ccccc1Nc1nc(Nc2cccc(Cl)c2)ncc1F` [Example 12, N-(2-(2-(3-chlorophenylamino)-5-fluoropyrimidin-4-ylamino)phenyl)methanesulfonamide] showed an IC50 of 1000 to 10000 nM. `CS(=O)(=O)Nc1ccccc1Nc1nc(Nc2cccc(-n3cccn3)c2)ncc1F` [Example 17, N-(2-(2-(3-(1H-pyrazol-1-yl)phenylamino)-5-fluoropyrimidin-4-ylamino)phenyl)methanesulfonamide] gave an IC50 of 1000 to 10000 nM. `CS(=O)(=O)Nc1ccccc1Nc1nc(Nc2cccc(C#N)c2)ncc1Cl` [Example 205, N-(2-(5-chloro-2-(3-cyanophenylamino)pyrimidin-4-ylamino)phenyl)methanesulfonamide] was tested, and the IC50 was 100 to 1000 nM. In the case of `CS(=O)(=O)Nc1ccccc1Nc1nc(Nc2cccc(N3CCCC3)c2)ncc1F` [Example 85, N-(2-(5-fluoro-2-(3-(pyrrolidin-1-yl)phenylamino)pyrimidin-4-ylamino)phenyl)methanesulfonamide], the IC50 is reported as 1000 to 10000 nM. For `CS(=O)(=O)Nc1ccccc1Nc1nc(Nc2cccc(C(=O)NC3CC3)c2)ncc1F` [Example 83, N-cyclopropyl-3-(5-fluoro-4-(2-(methylsulfonamido)phenylamino)pyrimidin-2-ylamino)benzamide], the IC50 was 1000 to 10000 nM. With `CN(c1ccccc1Nc1nc(Nc2ccc(OCCN3CCCCC3)cc2)ncc1F)S(C)(=O)=O` [Example 110, N-(2-(5-fluoro-2-(4-(2-(piperidin-1-yl)ethoxy)phenylamino)pyrimidin-4-ylamino)phenyl)-N-methylmethanesulfonamide] the IC50 was 100 to 1000 nM.

Reference: patent US20110098288A1, “SULFONAMIDES AS ZAP-70 INHIBITORS” (priority 2008, published 2011)
